Assay results taken from patent publication US20240325394A1, “SALT AND CRYSTAL FORM OF NITROGEN-CONTAINING HETEROCYCLIC DERIVATIVE, PREPARATION METHOD THEREFOR AND APPLICATION THEREOF” (SHANGHAI HANSOH BIOMEDICAL CO., LTD., priority 2020, published 2024).

Experiments:
[1] = test system: human pancreatic cancer cell MiaPaca 2 xenograft (CDX); test: Tumor inhibition on MiaPaca 2 transplanted tumor model; type: in vivo, BALB/c nude mice; conditions: oral 6 mg/kg QD×3w
Protocol: MiaPaca 2 cells were removed from the cell bank, revived and added to DMEM medium (containing 10% FBS, 1% Glu, 1% P/S) and incubated in a CO2 incubator (incubator temperature was 37° C., CO2 concentration was 5%). After the cells were spread to 80-90% of the bottom of the culture flask, the cells were continued to be cultured in the CO2 incubator. The process was repeated until the number of cells met the in vivo pharmacological inoculation requirement, and the cells in logarithmic growth period were collected and counted with an automatic cell counter, resuspended with PBS and Matrigel (volume ratio 1:1) according to the count results, made into a cell suspension (the density was 8×10^7/mL), and placed in an ice box for use.
BALB/c nude mice, female, 6-8 weeks old, weighing about 18-22 g. The mice were kept in an environment free of special pathogens and in a single ventilated cage with 5 mice in each cage. […] Nude mice were labeled with disposable universal ear tags for mice and rats before the start of the experiment, and the skin of the inoculation site was disinfected with 75% medical alcohol before inoculation, 0.1 mL (containing 8*10^6 cells) of MiaPaca 2 tumor cells were inoculated subcutaneously on the right back of each mouse. When the tumor volume reached 100-200 mm^3, the group administration was started.
The tumor volume (mm^3) was measured with vernier caliper twice a week, the calculation formula was V=[…], wherein D and d were the long and short diameter of the tumor, respectively. The anti-tumor efficacy was determined by dividing the average tumor increased volume of the compound-treated animals by the average tumor increased volume of the untreated animals. The formula of tumor inhibition rate is: TGI (%)=1−[(Vt−V0) administration group/(Vt−V0) solvent control group]*100%. After the experiment, all animals were euthanized.

[2] = test system: phosphorylated ERK in Mia PaCa-2 cells; test: Inhibition of phosphorylated ERK in Mia PaCa-2 cells (LANCE Ultra); type: cell-based, human; conditions: 2 hours treatment; read-out: Mia PaCa-2 pERK IC50
Protocol: When Mia PaCa-2 cells were cultured to the appropriate fusion level, Mia PaCa-2 cells were collected, and the cell density was adjusted to 1×10^6/mL using complete culture medium, the cell suspension was spread on a 96-well plate, 50 μL per well, and placed adherent to the wall in a 37° C., 5% CO2 incubator overnight, compound solutions with different concentrations were prepared using DMSO and complete culture medium, a solvent control was set, the compound solution was added to a 96-well plate, 25 μL per well, and placed in a 37° C., 5% CO2 incubator for 2 hours of continuous culture, the supernatant was discarded from the cell culture plate, 50 μL of lysis solution was added to each well, and lysing was performed for 30 minutes by shaking at room temperature, then the mixture was centrifuged at 1000 rpm for 1 minute, 15 μL of supernatant was transferred to 384 well plate, 5 μL of detection mixture (Eu-labeled anti-ERK1/2 (T202-Y204) antibody with final concentration of 0.5 nM and ULight labeled anti-ERK1/2 antibody with final concentration of 5 nM) was added to each well, centrifuged at 1000 rpm for 1 minute and mixed uniformly, the reaction was carried out overnight at room temperature, the plate was read with BioTek Synergy H1, and the signal values was detected at 620 nm and 665 nm emission wavelengths by time-resolved fluorescence program. […]

P-4-((2S,5R)-4-acryloyl-2,5-dimethylpiperazin-1-yl)-6-fluoro-7-(2-fluoro-6-hydroxyphenyl)-1-(2-isopropyl-4-(methylthio)pyridin-3-yl)pyrido[2,3-d]pyrimidin-2(1H)-one [Embodiment 2-1]
Tumor volume (mm^3, Mean ± SD) Day 0 ([1]; Day 0): 177 ± 38 mm^3 | TGI (%) Day 21 ([1]; Day 21): 162.36% | Tumor volume (mm^3, Mean ± SD) Day 21 ([1]; Day 21): 67 ± 34 mm^3 | ΔT/ΔC (%) Day 21 ([1]; Day 21): −62.36% | IC50 [2]: 38 nM
